In patent US7973047B2, “Beta-Secretase modulators and methods of use” (Amgen Inc., priority 2010, dated 2011):

These compounds were tested on Aβ40 in conditioned medium of cells stably expressing Amyloid Precursor Protein (APP) (assay: BACE cell-based assay: Aβ40 in conditioned medium by sandwich ELISA). Details: cell based assay data, Table 4; unit inferred; read-out: Cell Assay.
Outline: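 Aβ40 in conditioned medium was read by time-resolved fluorescence sandwich ELISA (capture pAb40, detection biotinylated 6E10, 4° C incubations). Compounds were applied for 24 h to cells stably expressing APP, at 10 doses from 100 or 10 μM top, 0.1% DMSO. IC50 derived from percent of control.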

| SMILES | IC50 [µM] |
| --- | --- |
| CC(=O)N[C@@H](Cc1ccccc1)[C@H](O)CN[C@H]1CC2(CCC2)Oc2ccc(NC3CCCC3)cc21 [compound 771] | 0.166 |
| CC(=O)N[C@@H](Cc1ccccc1)[C@H](O)CN[C@H]1CC2(CCC2)Oc2ccc(NC(C)(C)C)cc21 [compound 772] | 0.981 |
| CC(=O)N[C@@H](Cc1cc(F)cc(F)c1)[C@H](O)CN[C@H]1CC2(CCC2)Oc2c1cc(Cl)cc2-n1cnc2ccccc21 [compound 775] | 0.212 |
| CC(=O)N[C@@H](Cc1ccccc1)[C@H](O)CN[C@H]1CC2(CCC2)Oc2ccc(-c3ccn(CC(C)C)n3)cc21 [compound 779] | 0.19 |
| CC(=O)N[C@@H](Cc1cc(F)cc(F)c1)[C@H](O)CN[C@H]1CC2(CCC2)Oc2ccc(-c3ccn(CC(C)C)n3)cc21 [compound 780] | 1.65 |
| CC(=O)N[C@@H](Cc1cc(F)cc(F)c1)[C@@H](O)CN[C@H]1CC2(CCC2)Oc2ccc(-n3cccn3)cc21 [compound 781] | 1.16 |
| CC(=O)N[C@@H](Cc1ccccc1)[C@H](O)CN[C@H]1CC2(CCC2)Oc2ccc(-c3ccn(C)n3)cc21 [compound 783] | 3.24 |
| CC(=O)N[C@@H](Cc1cc(F)cc(F)c1)[C@H](O)CN[C@H]1CC2(CCC2)Oc2ccc(-c3ccn(C)n3)cc21 [compound 784] | 1.65 |
| CC(=O)N[C@@H](Cc1cc(F)cc(F)c1)[C@H](O)CN[C@H]1CC2(CCC2)Oc2ccc(-c3cccs3)cc21 [compound 785] | 2.97 |
| CC(=O)N[C@@H](Cc1cc(F)cc(F)c1)[C@@H](O)CN[C@H]1CC2(CCC2)Oc2c1cc(Cl)cc2-n1cccn1 [compound 786] | 1.37 |
| CC(=O)N[C@@H](Cc1cc(F)cc(F)c1)[C@H](O)CN[C@H]1CC2(CCC2)Oc2cc(Br)ccc21 [compound 787] | ≥ 10 |
| CC(=O)N[C@@H](Cc1cc(F)cc(F)c1)[C@H](O)CN[C@H]1CC2(CCC2)Oc2ccc(-n3nccn3)cc21 [compound 791] | 0.803 |
| CC(=O)N[C@@H](Cc1cc(F)cc(F)c1)[C@H](O)CN[C@H]1CC2(CCC2)Oc2ccc(N3CCCC3=O)cc21 [compound 793] | 0.359 |
| CC(=O)N[C@@H](Cc1cc(F)cc(F)c1)[C@H](O)CN[C@H]1CC2(CCC2)Oc2ccc(N3CCC3=O)cc21 [compound 795] | 0.255 |
| CC(=O)N[C@@H](Cc1cc(F)cc(F)c1)[C@H](O)CN[C@H]1CC2(CCC2)Oc2cc(F)c(Br)cc21 [compound 801] | 0.571 |
| CC(=O)N[C@@H](Cc1cc(F)cc(F)c1)[C@H](O)CN[C@H]1CC(C)(C)Oc2cc(F)c(Br)cc21 [compound 802] | 0.525 |
| CC(=O)N[C@@H](Cc1cc(F)cc(F)c1)[C@H](O)CN[C@H]1CC2(CCC2)Oc2cc(F)ccc21 [compound 804] | 2.95 |
| CC(=O)N[C@@H](Cc1cc(F)cc(F)c1)[C@H](O)CN[C@H]1CC2(CCC2)Oc2cc(F)c(NC3CCOCC3)cc21 [compound 806] | 0.452 |
| CC(=O)N[C@@H](Cc1cccc(F)c1)[C@H](O)CN[C@H]1CC2(CCC2)Oc2cc(F)c(-n3cccn3)cc21 [compound 807] | 0.489 |
| CC(=O)N[C@@H](Cc1ccc(F)cc1)[C@H](O)CN[C@H]1CC2(CCC2)Oc2cc(F)c(-n3cccn3)cc21 [compound 808] | 1.94 |
| CC(=O)N[C@@H](Cc1ccccc1Br)[C@H](O)CN[C@H]1CC2(CCC2)Oc2ncc(CC(C)(C)C)cc21 [compound 810] | 0.197 |
| CC(=O)N[C@@H](Cc1c(F)cc(F)cc1F)[C@H](O)CN[C@H]1CC2(CCC2)Oc2ncc(CC(C)C)cc21 [compound 815] | 0.224 |
| CC(=O)N[C@@H](Cc1ccc(F)c(F)c1F)[C@H](O)CN[C@H]1CC2(CCC2)Oc2ncc(CC(C)C)cc21 [compound 816] | 0.137 |
| CC(=O)N[C@@H](Cc1ccc(F)cc1)[C@H](O)CN[C@H]1CC2(CCC2)Oc2ncc(Cc3ccccc3)cc21 [compound 818] | 1.8 |
| CC(=O)N[C@@H](Cc1ccccc1)[C@H](O)CN[C@H]1CC2(CCC2)Oc2ccc(OC(C)C)cc21 [compound 823, N-((2S,3R)-3-hydroxy-4-((S)-6-isopropoxy-2,2-spirocyclobutyl-chroman-4-ylamino)-1-phenylbutan-2-yl)acetamide] | 0.31 |

The next lines start with the values.

| IC50 [µM] | SMILES |
| --- | --- |
| 0.0389 | CC(=O)N[C@@H](Cc1cccc(F)c1F)[C@H](O)CN[C@H]1C[C@]2(C[C@@H](C)C2)Oc2ncc(CC(C)(C)C)cc21 [compound 768, N-((1S,2R)-1-((2,3-difluorophenyl)methyl)-3-(((1r,3S,4′S)-6′-(2,2-dimethylpropyl)-3-methyl-3′,4′-dihydrospiro[cyclobutane-1,2′-pyrano[2,3-b]pyridin]-4′-yl)amino)-2-hydroxypropyl)acetamide] |
| 0.0338 | CC(=O)N[C@@H](Cc1cccc(F)c1F)[C@H](O)CN[C@H]1C[C@]2(C[C@H](C)C2)Oc2ncc(CC(C)(C)C)cc21 [compound 769, N-((1S,2R)-1-((2,3-difluorophenyl)methyl)-3-(((1s,3R,4′S)-6′-(2,2-dimethylpropyl)-3-methyl-3′,4′-dihydrospiro[cyclobutane-1,2′-pyrano[2,3-b]pyridin]-4′-yl)amino)-2-hydroxypropyl)acetamide] |
| 0.00246 | CC(=O)N[C@@H](Cc1cccc(F)c1)[C@H](O)CN[C@H]1C[C@]2(C[C@H](C)C2)Oc2ncc(CC(C)(C)C)cc21 [compound 770, N-((1S,2R)-3-(((1s,3R,4′S)-6′-(2,2-dimethylpropyl)-3-methyl-3′,4′-dihydrospiro[cyclobutane-1,2′-pyrano[2,3-b]pyridin]-4′-yl)amino)-1-((3-fluorophenyl)methyl)-2-hydroxypropyl)acetamide] |
| 0.0219 | CC(=O)N[C@@H](Cc1cc(F)cc(F)c1)[C@H](O)CN[C@H]1CC2(CCC2)Oc2c1cc(Cl)cc2-n1ccnc1 [compound 773] |
| 0.0882 | CC(=O)N[C@@H](Cc1cc(F)cc(F)c1)[C@H](O)CN[C@H]1CC2(CCC2)Oc2ccc(Br)cc21 [compound 774] |
| 0.124 | CC(=O)N[C@@H](Cc1cc(F)cc(F)c1)[C@H](O)CN[C@H]1CC2(CCC2)Oc2c1cc(Cl)cc2-n1cccn1 [compound 776] |
| 0.0412 | CC(=O)N[C@@H](Cc1cc(F)cc(F)c1)[C@H](O)CN[C@H]1CC2(CCC2)Oc2ccc(-n3cccn3)cc21 [compound 777] |
| 0.0833 | CC(=O)N[C@@H](Cc1ccccc1)[C@H](O)CN[C@H]1CC2(CCC2)Oc2ccc(-c3cccs3)cc21 [compound 778] |
| 0.0816 | CC(=O)N[C@@H](Cc1cc(F)cc(F)c1)[C@H](O)CN[C@H]1CC2(CCC2)Oc2ccc(-n3ccnc3)cc21 [compound 782] |
| 0.0177 | CC(=O)Nc1ccc2c(c1)[C@@H](NC[C@@H](O)[C@H](Cc1cc(F)cc(F)c1)NC(C)=O)CC1(CCC1)O2 [compound 789] |
| 0.0585 | CC(=O)N[C@@H](Cc1cc(F)cc(F)c1)[C@H](O)CN[C@H]1CC2(CCC2)Oc2ccc(N[C@@H]3CCOC3)cc21 [compound 790] |
| 0.137 | CC(=O)N[C@@H](Cc1cc(F)cc(F)c1)[C@H](O)CN[C@H]1CC2(CCC2)Oc2ccc(-n3cncn3)cc21 [compound 792] |
| 0.0348 | CC(=O)N[C@@H](Cc1ccccc1)[C@H](O)CN[C@H]1CC(C)(C)Oc2cnc(CC(C)(C)C)cc21 [compound 794] |
| 0.00839 | CC(=O)N[C@@H](Cc1cc(F)cc(Cl)c1)[C@H](O)CN[C@H]1CC(C)(C)Oc2cnc(CC(C)(C)C)cc21 [compound 796] |
| 0.0113 | CCC(=O)N[C@@H](Cc1cc(F)cc(Cl)c1)[C@H](O)CN[C@H]1CC(C)(C)Oc2cnc(CC(C)(C)C)cc21 [compound 797] |
| 0.00673 | CC(=O)N[C@@H](Cc1cccc(F)c1)[C@H](O)CN[C@H]1CC(C)(C)Oc2cnc(CC(C)(C)C)cc21 [compound 798] |
| 0.0454 | CC(=O)N[C@@H](Cc1ccc(F)cc1)[C@H](O)CN[C@H]1CC(C)(C)Oc2cnc(CC(C)(C)C)cc21 [compound 799] |
| 0.00356 | CC(=O)N[C@@H](Cc1cc(F)cc(F)c1)[C@H](O)CN[C@H]1CC(C)(C)Oc2cnc(CC(C)(C)C)cc21 [compound 800] |
| 0.116 | CC(=O)N[C@@H](Cc1cc(F)cc(F)c1)[C@H](O)CN[C@H]1CC2(CCC2)Oc2cc(F)c(N[C@@H]3CCOC3)cc21 [compound 803] |
| 0.00514 | CC(=O)N[C@@H](Cc1cc(F)cc(NC2CCOCC2)c1)[C@H](O)CN[C@H]1CC2(CCC2)Oc2ncc(CC(C)(C)C)cc21 [compound 805] |
| 0.0787 | CC(=O)N[C@@H](CC1CCC1)[C@H](O)CN[C@H]1CC2(CCC2)Oc2ncc(CC(C)(C)C)cc21 [compound 809, N-((1S,2R)-1-(cyclobutylmethyl)-3-(((4′S)-6′-(2,2-dimethylpropyl)-3′,4′-dihydrospiro[cyclobutane-1,2′-pyrano[2,3-b]pyridin]-4′-yl)amino)-2-hydroxypropyl)acetamide] |
| 0.1 | CC(=O)N[C@@H](Cc1c(F)cc(F)cc1F)[C@H](O)CN[C@H]1CC2(CCC2)Oc2ncc(CC(C)(C)C)cc21 [compound 813] |
| 0.0563 | CC(=O)N[C@@H](Cc1ccc(F)c(F)c1F)[C@H](O)CN[C@H]1CC2(CCC2)Oc2ncc(CC(C)(C)C)cc21 [compound 814] |
| 0.132 | CC(=O)N[C@@H](Cc1ccc(Cl)cc1)[C@H](O)CN[C@H]1CC2(CCCC2)Oc2ncc(CC(C)(C)C)cc21 [compound 817] |
| 0.0662 | CC(=O)N[C@@H](Cc1ccccc1)[C@H](O)CN[C@H]1CC2(CCC2)Oc2ccc(CCCCCO)cc21 [compound 822] |
| 0.00232 | CC(=O)N[C@@H](Cc1cccnc1)[C@H](O)CN[C@H]1CC2(CCC2)Oc2ncc(CC(C)(C)C)cc21 [compound 824, N-((1S,2R)-3-(((4′S)-6′-(2,2-dimethylpropyl)-3′,4′-dihydrospiro[cyclobutane-1,2′-pyrano[2,3-b]pyridin]-4′-yl)amino)-2-hydroxy-1-(3-pyridinylmethyl)propyl)acetamide] |
| 0.00434 | CC(=O)N[C@@H](Cc1cccc(F)c1F)[C@H](O)CN[C@H]1CC2(CCC2)Oc2ncc(CC(C)(C)C)cc21 [compound 825] |
| 0.00693 | CC(=O)N[C@@H](Cc1c(F)cccc1F)[C@H](O)CN[C@H]1CC2(CCC2)Oc2ncc(CC(C)(C)C)cc21 [compound 826] |
